Assay results from US20250082624A1, “METHODS OF TREATING COGNITIVE IMPAIRMENT” (NeuroTherapia, Inc., priority 2023, published 2025).
Where “and” joins values, the source holds several entries; their conditions need not be identical. Identical values can stand only once. Entries after “also recorded” stand apart in the source; their conditions may differ.

Legend:
[1] = system: volunteers and AD patients; experiment: Phase 1b MAD safety and tolerability (adverse events, ECG, safety labs); assay type: in vivo, human
Source text: (§1) Methods: All study procedures were approved by the IRB, and informed consent was obtained. Three cohorts of volunteers 45-80 years of age with well-controlled comorbidities (NOAD) and one cohort of AD patients diagnosed with cognitive impairment consistent with prodromal AD per International Working Group criteria or mild AD per National Institute on Aging—Alzheimer's Association criteria (n=6 active, 2 placebo per cohort) were enrolled. Participants were admitted to the study site for the duration of the dosing and returned 7-12 days after the last dose for a safety visit. Participants received NTRX-07 (10, 30, or 90 mg) or a placebo in a double-blinded randomization orally once daily for seven days. Subjects were assessed for changes in vital signs, including maneuvers to induce lightheadedness, electrocardiograms, 24-hour electroencephalograms (EEG), and safety laboratory studies. The second cohort returned and received a single repeat dose after a standard high-fat meal. The AD cohort also underwent cognitive testing and had blood samples for biomarkers drawn. Subjects had PK sampling done after the first and final dose of the study drug. An independent safety review committee conducted a blinded safety review of adverse events and plasma levels between each cohort.
(§2) Assessments: Subjects were assessed for changes in vital signs, orthostatic blood pressure, Romberg test, nystagmus, timed get up and go, electrocardiograms, electroencephalograms (EEG), and laboratory studies. Subjective questionnaires of drug effects (ARCI-M) were administered. Cohort B returned and received a single repeat dose after a standard high-fat meal. The AD cohort also underwent cognitive testing (MMSE, ADAS-COG, MOCA) and had blood samples for biomarkers drawn.
(§3) An informational letter was filed with the FDA to inform them of this study. The study was designed as follows: • 3 healthy cohorts (cohorts A-C) followed by AD cohort (cohort D) treated at MTD • 6 treated, 2 placebos in each cohort • Doses: 10, 30, 90 mg/treatment—latter doses can be adjusted based on PK assessment • In unit, 7 days of treatment • Monitor vertigo with various tests: (1) timed get-up and go, (2) Nystagmus test, (3) Romberg test, and (4) changes in orthostatic blood pressure (Day 1, 3 and 8) • Use 24 hr EEG monitoring for CNS safety assessment • Assess plasma biomarkers of inflammation and AD pre- and post-treatment in AD cohort • Assess changes on cognition post-treatment using MMSE and ADAS-cog • Fed/fasted study to determine food effects on PK as a subset of the Phase 1b

[2] = system: volunteers and AD patients; experiment: 24-hour EEG safety assessment and post-hoc qEEG analysis; assay type: in vivo, human; details: AD patients, 90 mg QD 7 days, post hoc exploratory
Experimental: Protocol-specified EEG assessments were for safety assessment of any potential epileptogenic changes. A post-hoc analysis of quantitative EEG (qEEG) changes was also performed.
as §3
No subjects had clinically meaningful abnormal values or changes from baseline, nor differences between placebo and active drug, in EEG readings in any of the 4 cohorts.

dogs = experiment: Dog toxicity (CNS safety issue raised by FDA); assay type: in vivo; details: 200 mg/kg/day
healthy volunteers = details: cited from earlier work
[3] = system: plasma biomarkers of inflammation; experiment: Plasma biomarkers of inflammation and AD in AD cohort; assay type: in vivo, human; details: for AB40 Median / AB42 Median / Chitinase-3 Median / IL-1β Median / IL-2 Median / IL-4 Median / IL-5 Median / IL-6 Median / IL-8 Median / IL-10 Median / IL-12p70 Median / IL-22 Median / INFg Median / NF-LIGHT Median / Neurogranin Median / TNFa Median / TREM-2 Median / Total Tau Median / hCRP Median / pTau-181 Median: plasma
Source text: as §1, §2, §3
(§4) Exploratory endpoints include cognitive testing and potential plasma biomarkers of inflammation. The small group size (6 on treatment, 2 placebo) precludes statistical analysis, but the goals were to gain insights for future study design. Exploratory endpoints include: • MMSE, MOCA & ADAS-COG • IL-12p70, IL-10, IL-4, IL-5, INFg, IL-6, IL-8, IL-22, TNFa, IL-10, hCRP, Chitinase-3, TREM-2, IL-2, Neurogranin, Total Tau, AB42, AB40, NF-LIGHT, pTau-181

AD cohort = experiment: Cognitive testing ADAS-COG in AD cohort; assay type: in vivo, human; details: 90 mg QD 7 days
Source text: as §1, §2, §4

[4] = system: APP/PS1 mouse model of AD; details: cited from earlier work
[5] = Phase 1b, individual subjects on NTRX-07, Cohorts C and D (90 mg QD)
[6] = after 7 days of 90 mg QD, Day 8

For `CC1(Cc2ccccc2)COc2cc(C(=O)N3CCCCC3)ccc21` (centres unmarked) [NTRX-07, 3-benzyl-3-methyl-2,3-dihydrobenzofuran-6-carboxylic acid-piperidine amide], the “Changes in ECG or safety labs” value ([1]; Phase 1b) was “No clinically meaningful changes”, the “Dose-limiting toxicities / serious adverse events” value ([1]; Phase 1b, 10, 30, 90 mg oral QD for 7 days) was “no dose-limiting or serious adverse events; also recorded: safely administered; also recorded: No dose limiting toxicities at any of the tested doses” and the “Adverse events observed during trial: Description of Event” value [1, 5] was “Subfebrility; also recorded: Heartburn; also recorded: Dry mouth; also recorded: Xerostomia; also recorded: Hypertension; also recorded: Nausea; also recorded: Hypertension,; also recorded: tachycardia; also recorded: Dizziness; also recorded: Presyncope; also recorded: Weakness”. The “Adverse events observed during trial: Related to Study Drug?” value [1, 5] was “Possible (7×) and Probable and None (2×)”, the “Adverse events observed during trial: Severity” value [1, 5] was “Mild (8×) and Moderate (2×)” and the “qEEG mean frequency (AD effect)” value [2] was “treatment partially reversed this AD effect; also recorded: Trend towards improvement; also recorded: partial reversion of AD effect; also recorded: increasing mean frequency”. The Seizures (dogs) was “Seizures in 1 or 2 dogs”, the “Adverse effect at high doses” value (healthy volunteers; single doses of 3.5 and 4 mg/kg) was “transient lightheadedness” and the Major adverse effects (healthy volunteers; single doses up to 2 mg/kg, healthy volunteers) was “no major adverse effects”. For the same compound, the “Changes in plasma biomarkers” value ([3]; 90 mg QD 7 days) was “No significant changes in biomarkers or plasma biomarkers; also recorded: no consistent changes”, the “AB40 Median” value ([3]; 90 mg QD, Day 1 (baseline)) was 232.84 pg/mL and the “AB42 Median” value ([3]; 90 mg QD, Day 1 (baseline)) was 8.29 pg/mL. For the same compound, the “Chitinase-3 Median” value ([3]; 90 mg QD, Day 1 (baseline)) was 43668.33 pg/mL, the “IL-1β Median” value ([3]; 90 mg QD, Day 1 (baseline)) was 0.13 pg/mL and the “IL-2 Median” value ([3]; 90 mg QD, Day 1 (baseline)) was 0.16 pg/mL. The “IL-4 Median” value ([3]; 90 mg QD, Day 1 (baseline)) was 1.38 pg/mL, the “IL-5 Median” value ([3]; 90 mg QD, Day 1 (baseline)) was 0.17 pg/mL and the “IL-6 Median” value ([3]; 90 mg QD, Day 1 (baseline)) was 2.19 pg/mL. The “IL-8 Median” value ([3]; 90 mg QD, Day 1 (baseline)) was 7.65 pg/mL, the “IL-10 Median” value ([3]; 90 mg QD, Day 1 (baseline)) was 0.35 pg/mL and the “IL-12p70 Median” value ([3]; 90 mg QD, Day 1 (baseline)) was 0.34 pg/mL. The “IL-22 Median” value ([3]; 90 mg QD, Day 1 (baseline)) was 0.9 pg/mL, the “INFg Median” value ([3]; 90 mg QD, Day 1 (baseline)) was 0.08 pg/mL and the “NF-LIGHT Median” value ([3]; 90 mg QD, Day 1 (baseline)) was 18.24 pg/mL. For the same compound, the “Neurogranin Median” value ([3]; 90 mg QD, Day 1 (baseline)) was 671.19 pg/mL, the “TNFa Median” value ([3]; 90 mg QD, Day 1 (baseline)) was 0.69 pg/mL and the “TREM-2 Median” value ([3]; 90 mg QD, Day 1 (baseline)) was 38468.67 pg/mL. For the same compound, the “Total Tau Median” value ([3]; 90 mg QD, Day 1 (baseline)) was 2.07 pg/mL, the “hCRP Median” value ([3]; 90 mg QD, Day 1 (baseline)) was 4135.17 ng/mL and the “pTau-181 Median” value ([3]; 90 mg QD, Day 1 (baseline)) was 21.53 pg/ml. For the same compound, the “AB40 Median” value [3, 6] was 226.52 pg/mL, the “AB42 Median” value [3, 6] was 8.57 pg/mL and the “Chitinase-3 Median” value [3, 6] was 40345.17 pg/mL. The “IL-1β Median” value [3, 6] was 0.11 pg/mL, the “IL-2 Median” value [3, 6] was 0 pg/mL and the “IL-4 Median” value [3, 6] was 1.14 pg/mL. The “IL-5 Median” value [3, 6] was 0.19 pg/mL, the “IL-6 Median” value [3, 6] was 2.44 pg/mL and the “IL-8 Median” value [3, 6] was 10.41 pg/mL. The “IL-10 Median” value [3, 6] was 0.38 pg/mL, the “IL-12p70 Median” value [3, 6] was 0.33 pg/mL and the “IL-22 Median” value [3, 6] was 0.87 pg/mL. For the same compound, the “INFg Median” value [3, 6] was 0.08 pg/mL, the “NF-LIGHT Median” value [3, 6] was 18.49 pg/mL and the “Neurogranin Median” value [3, 6] was 881.02 pg/mL. The “TNFa Median” value [3, 6] was 0.83 pg/mL, the “TREM-2 Median” value [3, 6] was 39576.17 pg/mL and the “Total Tau Median” value [3, 6] was 2.03 pg/mL. For the same compound, the “hCRP Median” value [3, 6] was 4211.88 ng/mL, the “pTau-181 Median” value [3, 6] was 20.16 pg/ml and the “ADAS-COG Mean (StdDev)” value (AD cohort; Day 8) was 12.72 (1.56). For the same compound, the ADAS-COG (AD cohort; Day 8, individual subjects) was 11.00 and 15.33 and 11.67 and 12.67 and 12.00 and 13.67, the “ADAS-COG Mean (StdDev)” value (AD cohort; Day −2 (baseline)) was 17.50 (2.83) and the ADAS-COG (AD cohort; Day −2 (baseline), individual subjects) was 17.00 and 18.33 and 13.33 and 22.00 and 18.00 and 16.33. For the same compound, the “ADAS-COG Mean (StdDev)” value (AD cohort; EOS Day 14-19) was 13.17 (3.46), the ADAS-COG (AD cohort; EOS Visit (Day 14-19), individual subjects) was 9.33 and 19.33 and 11.00 and 12.00 and 13.00 and 14.33 and the ADAS-COG trend (AD cohort; immediately post-treatment) was “Trend toward improvement”. The “Clearance of Aβ” value ([4]; AD models, FIG. 4) was “improved clearance of A-beta proteins; also recorded: increases clearance of Aβ”, the Aβ plaque clearance ([4]; APP/PS1 (Tg(APPswe,PSEN1dE9)85Dbo) mouse, FIG. 5) was “promotes Aβ plaque clearance” and the “CB2 increase / Iba1 colocalization in microglia (microglial activation)” value ([4]; APP/PS1 mouse model of AD, FIG. 3) was “returned towards baseline”. For the same compound, the “Inflammatory changes in the brain” value ([4]; preclinical AD models) was “decreased inflammatory changes in the brain” and the Long-term potentiation ([4]; preclinical AD models) was “improved long-term potentiation”.
